Test results as given in patent publication US6649628B1, “N-[2-hydroxy-3-(1-piperidinyl)propoxy]pyridine-1-oxide-3-carboximidoyl chloride and its use in the treatment of insulin resistance” (Biorex Kutato es Fejleszto RT, priority 1999, dated 2003).
Like-named read-outs stand apart in the source and are kept apart here.

Legend:
STZ-diabetic Wistar rats [1] = assay: Experiment 5: urinary protein loss caused by diabetic nephropathy after 1-month treatment; type: in vivo, rat
Protocol: For the 24-hour period of urine collection, the animals were placed in individual metabolic cages. During this period they were given water ad libitum but no food. The latter measure was necessary to prevent possible contamination by the protein content of the food. Urine was collected in calibrated glass containers, in which Thymol crystal (Reanal 3135-1-08-38) was placed to prevent bacterial contamination.
Before measurement, the urine samples were centrifuged (2500 rpm) and filtered through a paper filter (Whatmann 1). If necessary, they were stored at −20° C. until measurement.
The total protein content of the urine was determined by the Bradford staining method (Sigma B-6916, St. Louis, Mo.), and color intensity was detected by spectrophotometry (Hitachi-U-3200).

STZ-diabetic rats = details: 2 month; for Scores lenticular + retinal improvement % / Scores lenticular + retinal mean ± SE / Scores retinal improvement % / Scores retinal mean ± SE: 5 mg/kg daily; for effect on lenticular and retinal pathologic histological alterations / effect on retinal histological alterations only: Compound-A 10 mg/kg, enantiomers 5 mg/kg daily
Protocol: After anesthesia (Calypsovet, 125 mg/kg. Ip., Richter Rt., Hungary), the eyes were enucleated and fixed in 4% formaldehyde dissolved in a phosphate buffer (pH:7.4).
Afterwards, they were embedded in paraffin (Medim DDM P800, embedding center: Lignifer L-120-92-014, stainer: Shandon Eliott, Microtome: is Leica SM 2000 R, Microscope: Jenaval Karl Zeiss Jena). Several 6 micron sections of the eyes were prepared, and hematoxilyn/eosine (Fluka) and PAS (periodic acid-Schiff, Fluka) staining were used. The light-microscopic evaluation was performed at a magnification of 40× and 100×. Photographs and slide positives were prepared of representative samples.
The histological evaluation was performed on coded samples, the group division was unknown for the examiner. Pathological deviations of the retina were graded on a scale of 0-20, while those of the lens on a scale of 0-3.
The statistical calculations were done with the Statistica 4.5 (SatSoft, USA) program. The given value for negative cases was 0.1. A Box and Whisker plot graph was also prepared.
For each group in the experiment, the mean±SE (Standard Error) values were calculated, and the comparison was done with the help of a non-parametric Mann-Whitney U-test (Graphpad Instat, San Diego, Calif.).

[2] = tested on: Zucker Diabetic Fatty (ZDF) rats; details: for Fed serum glucose concentrations: 2 × 20 mg/kg/day
Protocol: A genetically diabetic animal model was selected and the Zucker Diabetic Fatty (ZDF) rats were used in the experiments. This model is the diabetic variant of the insulin resistant, obese but non-diabetic Zucker fa/fa animal model (see Experiment 1). In the ZDF rats diabetes developed at the age of 6-8 weeks preceded by an insulin resistant phase.
The effect of (A+) enantiomer was investigated in a treatment with a dose of 2×20 mg/kg/day started in the non-diabetic phase, at the age of 7 weeks and continued for 6 weeks.
Clinical chemistry parameters were measured by standard methods. The serum insulin concentrations were measured by a recently developed method (ELISA method, DRG lnternational,Inc., U.S.A.).

STZ-diabetic Wistar rats [3] = tested on: STZ-diabetic Wistar rats
Excerpt: The experiments were accomplished on Wistar rats with a body weight of 320-350 g. Diabetes was induced and checked as described in Experiment 2. In the test animals having been diabetic for 3 weeks the left nervus ischidiacus was injured by freezing and the right side one was used as non-injured control. The regeneration was observed by monitoring the signals of the flexor reflex provoked by irritation of the sole that is areas under curve (AUC) of the electromyogram transferred from the forward tibial muscle. For the stimulation and detection the system described in Experiment 2 was used. Single daily doses of 10 mg/kg of Compound-A and 5 mg/kg of A(+) enantiomer were administred for 5 weeks after the injury by freezing.

STZ-diabetic Wistar rats [4] = assay: Experiment 6: Compound-A and enantiomers, nerve conduction velocity after 1 month treatment; details: for MNCV / MNCV improvement / SNCV / SNCV improvement: 5 mg/kg daily, 1 month; for effect on motor (MNCV) and sensory (SNCV) nerve conduction velocity deficits: Compound-A 10 mg/kg, enantiomers 5 mg/kg daily
Protocol: In the experiments, male Wistar rats were used (Charles River Laboratories Inc.). At the start of the experiment, their weights were 340-370 g. Diabetes was induced by the intravenous administration of a single 45 mg/kg dose of streptozotocine (STZ, Sigma, St. Louis, Mo.) dissolved in physiological saline solution. The development of diabetes was checked after 1 day by a blood glucose test, accepting a value over 15 mmol/l.
The test and reference substances were administered p.os to the animals once a day.
For the determination of nerve conduction velocity (NCV), the method of Stanley, modified by De Konig and Gispen was used. The animals were anesthetized by the simultaneous administration of Hyponorm (1 mg/kg ip., Janssen, Tilburg, Denmark), fluanisone (10 mg/ml), and phentanyl citrate (0.2 mg/ml). Afterwards, the left ischiadicus and tibial nerves were stimulated at standard points. Supramaximal stimulus (square impulse, 0.03 ms) was used with a platinum needle electrode, through a Nihon-Kohden (model SEN-1104, Japan) stimulator. The electromyogram (EMG) transferred from the sole muscles and intensified by a myograph (Elema-Schonander, Stockholm, Sweden) was analyzed further by the Matlab for Windows (Mathwork Inc, UK) program. The extent of NCV damage caused by diabetes was expressed in m/s. The effectiveness of the treatment was compared to this in terms of percentage (%). The statistical calculations were done by unpaired t-test or single-criterion ANOVA test (along with the Newman-Keuls post hoc test).

[5] = tested on: high fat (HF) diet insulin resistant male Wistar rats; assay: Experiment 8: in vivo insulin-dependent glucose uptake (euglycaemic glucose clamp) in dietary induced insulin resistance; details: for effect on fasting blood glucose levels: 20 mg/kg daily, 3 weeks; for in vivo insulin mediated glucose uptake (glucose infusion rate, GIR): 20 mg/kg/day for 3 weeks, euglycaemic glucose clamp, insulin infusion 6.4 mU/kg/min
Protocol: Male Wistar rats (Charles River Laboratories Inc.) with an initial body weight of 300-350 g were used in the experiments.
Insulin resistance was induced by dietary manipulation: animals were given a high fat (HF) diet for 3 weeks. In the HF diet the proportion of saturated fats were dominant and gave 70% of total daily caloric intake.
Briefly: the fasting blood glucose concentration in different animal groups must be identical. Experiments were carried out in conscious, freely moving, chronicly canulated rats: first an insulin infusion (6.4 mU/kg/min) was started, followed by a parallel-run continuous glucose infusion to maintain blood glucose concentrations in the euglycaemic range. After stabilisation the quantity of infused glucose was measured for a 90 min. period (glucose infusion rate=GIR, mg/kg/min) which is the quantitative parameter of insulin sensitivity.

Row | Compound | Scores lenticular + retinal improvement % (STZ-diabetic rats) [%] | Scores lenticular + retinal mean ± SE (STZ-diabetic rats) | Scores retinal improvement % (STZ-diabetic rats) [%] | Scores retinal mean ± SE (STZ-diabetic rats) | effect on lenticular and retinal pathologic histological alterations (STZ-diabetic rats) | effect on retinal histological alterations only (STZ-diabetic rats) | MNCV (STZ-diabetic Wistar rats [4]) [m/s] | MNCV improvement (STZ-diabetic Wistar rats [4]) [%] | SNCV (STZ-diabetic Wistar rats [4]) [m/s] | SNCV improvement (STZ-diabetic Wistar rats [4]) [%] | effect on motor (MNCV) and sensory (SNCV) nerve conduction velocity deficits (STZ-diabetic Wistar rats [4]) | effect on fasting blood glucose levels [5] | in vivo insulin mediated glucose uptake (glucose infusion rate, GIR) [5] [mg/kg/min] | other results
1 | O=C(O)/C=C\C(=O)O.[O-][n+]1cccc(C(Cl)=NOC[C@H](O)CN2CCCCC2)c1 [A(+), (+)-/R/-N-[2-hydroxy-3-(1-piperidinyl)-propoxy]-pyridine-1-oxide-3-carboximidoyl chloride (Z)-2-butenedioate (1:1)] | 42.9 | 4.05 ± 0.80 | 68.9 | 1.68 ± 0.63 | significantly improved | effective | 56.1 ± 0.5 | 71.3 | 59.7 ± 0.5 | 68.5 | significantly improved | did not affect | 20.5 ± 0.89 | 24-hour Urinary Protein Loss Mean ± SE (STZ-diabetic Wistar rats [1]; 5 mg/kg daily, 1 month, series 2): 5.61 ± 1.08 mg/24 h; effect on STZ-diabetes-induced urinary protein loss (STZ-diabetic Wistar rats [1]; Bimoclomol 20 mg/kg, Compound-A 10 mg/kg, (+) enantiomer 5 mg/kg daily): significantly reduced; antidiabetic activity in diabetic animals ([2]; 2×20 mg/kg/day): strong antidiabetic activity; normalization of blood glucose concentrations ([2]; 2×20 mg/kg/day): did not normalize; Fed serum glucose concentrations ([2]; 3 weeks): 10.82 ± 1.36 mmol/L; Fed serum glucose concentrations ([2]; 5 weeks): 13.25 ± 0.76 mmol/L; neuroregeneration of the non-freezed nerves (STZ-diabetic Wistar rats [3]; 5 mg/kg daily for 5 weeks): 83%; neuroregenerative effect (STZ-diabetic Wistar rats [3]; 5 mg/kg daily for 5 weeks): strong neuroregenerative effect; extent of neuroregeneration of the nerve injured by freezing (STZ-diabetic Wistar rats [3]; 5 mg/kg daily for 5 weeks after injury, 5. week, untreated 63%): 93%
2 | O=C(O)/C=C\C(=O)O.[O-][n+]1cccc(C(Cl)=NOC[C@@H](O)CN2CCCCC2)c1 [A(−), (−)-/S/-N-[2-hydroxy-3-(1-piperidinyl)-propoxy]-pyridine-1-oxide-3-carboximidoyl chloride (Z)-2-butenedioate (1:1)] | 10.3 | 6.02 ± 1.09 | 21.7 | 3.53 ± 1.07 | not effective | not significant | 53.1 ± 0.7 | 39.4 | 54.1 ± 0.9 | 34.9 | did not have significant improving effect | did not affect | 19.7 ± 1.38 | –
